Results taken from patent publication US20060046976A1, “Method for increasing the bone mineral density and bone micro-architecture or connectivity of a mammal using N-acylated glucosamines” (priority 2004, published 2006).

Columns and labels:
SCW-arthritis rats = test: Micro-CT three-dimensional trabecular bone measurements of proximal tibia, SCW-arthritis rats; format: in vivo, Lewis type rats
Description: In this experiment performed and described herein, there were four groups of Lewis type rats, consisting of eight (8) animals in each group. Lewis type rats had experimental arthritis induced by a single intra-peritoneal injection of streptococcal cell wall antigen (SCW). This type of arthritis has an acute and chronic phase and affects mostly the distal joints in the hind limbs of the animals, and, less so, the knees and hips. Groups 1-3, inclusive, had inflammatory arthritis induced. The compound used in the experiment was used to supplement normal rat chow feed on a daily basis. Feed and water were unrestricted. Group I feed was supplemented with the compound shown in formula II, abbreviated as GlcNBu, at a dose of 200mg/kg/day. Group 3 feed was supplemented with GlcNBu at 20 mg/kg/day. At the end of 6 weeks, the animals were sacrificed, the femurs and tibias were excised, fixed in formalin and the BMD, micro-CT measurements, 3-dimentional measurements and two-dimentional subchondral bone analysis were carried out, by the methods detailed below. • BMD. All the dissected femurs and tibiae were scanned with dual energy x-ray absorptiometry (DXA) were measured at the distal femur, and proximal tibia using a user defined region of interest (ROI). • Micro-CT imaging protocol. The fixed left tibiae were scanned with micro-CT scanner (Explore Locus SP micro CT Scanner, GE Healthcare). The tibias were placed in a water filled specimen tube in a firmed position such that the main axis was kept as parallel as possible to the Z-axis of the micro-CT image coordinate system. The reconstructed tibia images were analyzed with MicroView 2.0 software (GE Healthcare, London, ON) in two and three dimensions. • Three-dimensional trabecular bone measurements. Three dimensional bone analyses were conducted using three selected ROIs using MicroView 2.0 analysis software. On 3D analysis, the tissue volume (3D-TV, mm3) and trabecular bone volume (3D-BV, mm3) were measured directly, and the fractional trabecular bone volume (3D-BV/TV, %) was calculated. […] Another parameter obtained is the structure model index (SMI). The SMI represented the plate-rod characteristics of trabecular structure. In this measure, a negative number is indicative of a plate-like structure containing holes, 0 represents an ideal plate-like structure while 3 represents the ideal rod (cylindrical) structure. Larger SMI values indicate that trabecular structure contains a more rod-like structure in older or diseased bone. • Three-dimensional isosurface. A 3-D isosurface image of each tibia was obtained by a volume-rendering function in MicroView to qualitatively examine the erosive damage in the bone surface. • Two-dimensional subchondral bone analysis. Three coronal sections of proximal tibia were obtained from each 3-D reconstructed tibia image: anterior, central, and posterior (1 mm apart). The subchondral trabecular bone structure and connectivity in the epiphyseal region of the proximal tibia was analyzed using an image processing and analysis system (Quantimet 570, Leica) on the 2-D micro-CT images.

ovariectomised rats = test: Wet weight of femurs, ovariectomised rats; format: in vivo, rat; settings: ovariectomised animals, oral feeding of GlcNBu, 6 months
Description: (§1) Sixteen ovariectomised rats (Charles River Laboratories), approximately 200 g in weight, were randomized into two groups. The control group received 200 mg of glucose, by mouth as single daily doses and the GlcNBu-treated group received 200 mg of GlcNBu by mouth, as single daily doses, for a total period of six (6) months. A similar group of non-ovariectomised animals was fed with GlcNBu or glucose at the same doses. The feeding of the compounds was done in small amounts of peanut butter which was very acceptable to the rats, which were allowed free access to water and rat chow. The animals had the BMDs of the femurs (total or global BMD) and the lumbar spines were estimated at baseline and then at, approximately 2, 4 and 6 months. Consistent position of the femurs was assured with a pre-determined grid. A Hologic 4500 DXA machine, with small animal software, was employed for the study. The animals were lightly anesthetized for each measurement.
(§2) At the end of the experiment, the animals were sacrificed, plasma was collected by cardiac puncture, and the femurs removed, fully dissected from adherent tissue and the wet weight was determined. The concentrations of Insulin-like Growth factor I (IGF-1) in the plasma, obtained at the end of the experiment, were determined by a commercial immunological method.

[1] = tested on: Insulin-like Growth factor I (IGF-1); test: Plasma IGF-1 concentration by commercial immunological method; format: in vivo, rat; settings: end of 6 months; ovariectomised GlcNBu fed rats compared to GlcNBu fed non-ovariectomised rats; p=0.044
Description: as §1, §2

[2] = SCW + GlcNBu High, lateral epiphysis of proximal tibia
[3] = SCW + GlcNBu High, medial epiphysis of proximal tibia
[4] = SCW + GlcNBu High, metaphysis of proximal tibia
[5] = SCW + GlcNBu Low, lateral epiphysis of proximal tibia
[6] = SCW + GlcNBu Low, medial epiphysis of proximal tibia
[7] = SCW + GlcNBu Low, metaphysis of proximal tibia

CCCC(=O)N[C@H]1C(O)O[C@H](CO)[C@@H](O)[C@@H]1O (stereo partly drawn) [GlcNBu, N-butyryl-D-glucosamine]
correction in SMI values compared to the untreated group (SCW-arthritis rats; GlcNBu treated groups, three tested areas): 15-33% | Trabecular Bone Volume (SCW-arthritis rats; [2]): 36.9 ± 3.7% | Trabecular Number (SCW-arthritis rats; [2]): 6.0 ± 0.6 | Trabecular Thickness (SCW-arthritis rats; [2]): 0.054 ± 0.008 mm | Trabecular Bone Volume (SCW-arthritis rats; [3]): 36.3 ± 4.8% | Trabecular Number (SCW-arthritis rats; [3]): 5.1 ± 0.7 | Trabecular Thickness (SCW-arthritis rats; [3]): 0.066 ± 0.014 mm | Trabecular Bone Volume (SCW-arthritis rats; [4]): 32.6 ± 4.7% | Trabecular Number (SCW-arthritis rats; [4]): 8.2 ± 1.5 | Trabecular Thickness (SCW-arthritis rats; [4]): 0.034 ± 0.004 mm | Trabecular Bone Volume (SCW-arthritis rats; [5]): 33.7 ± 2.7% | Trabecular Number (SCW-arthritis rats; [5]): 5.8 ± 0.5 | Trabecular Thickness (SCW-arthritis rats; [5]): 0.052 ± 0.008 mm | Trabecular Bone Volume (SCW-arthritis rats; [6]): 33.1 ± 3.0% | Trabecular Number (SCW-arthritis rats; [6]): 5.0 ± 0.4 | Trabecular Thickness (SCW-arthritis rats; [6]): 0.062 ± 0.011 mm | Trabecular Bone Volume (SCW-arthritis rats; [7]): 34.4 ± 9.4% | Trabecular Number (SCW-arthritis rats; [7]): 7.7 ± 1.3 | Trabecular Thickness (SCW-arthritis rats; [7]): 0.034 ± 0.005 mm | trabecular bone volume, trabecular number and thickness decreases in arthritis (SCW-arthritis rats; SCW-arthritis rats, GlcNBu 20 and 200 mg/kg/day, 2D and 3D images): corrected by GlcNBu treatment in a dose dependent manner | trabecular separation increase in SCW group (SCW-arthritis rats; SCW-arthritis rats, GlcNBu treatment): significantly reduced | increase in metaphyseal trabecular volume from Group2 to the GlcNBu treated groups (SCW-arthritis rats; SCW-arthritis rats, low and high dose groups, p<0.05): 12% | femoral wet weight (ovariectomised rats): increases femoral wet weight | plasma IGF-1 concentration [1]: significant difference
